Each molecule was assayed against T1, human CTPS1 (Homo sapiens, UniProt P17812) (assay: ADP-Glo assay, human CTPS1 enzyme inhibition). Details: wild-type human CTPS1 25 nM; ATP 120 μM, UTP 160 μM, GTP 60 μM, L-glutamine 100 μM; 25 degrees C.; read-out: ADP-Glo_WT_hCTPS1—25 nM_IC50 (IC50).
T1 sequence (P17812 1-591): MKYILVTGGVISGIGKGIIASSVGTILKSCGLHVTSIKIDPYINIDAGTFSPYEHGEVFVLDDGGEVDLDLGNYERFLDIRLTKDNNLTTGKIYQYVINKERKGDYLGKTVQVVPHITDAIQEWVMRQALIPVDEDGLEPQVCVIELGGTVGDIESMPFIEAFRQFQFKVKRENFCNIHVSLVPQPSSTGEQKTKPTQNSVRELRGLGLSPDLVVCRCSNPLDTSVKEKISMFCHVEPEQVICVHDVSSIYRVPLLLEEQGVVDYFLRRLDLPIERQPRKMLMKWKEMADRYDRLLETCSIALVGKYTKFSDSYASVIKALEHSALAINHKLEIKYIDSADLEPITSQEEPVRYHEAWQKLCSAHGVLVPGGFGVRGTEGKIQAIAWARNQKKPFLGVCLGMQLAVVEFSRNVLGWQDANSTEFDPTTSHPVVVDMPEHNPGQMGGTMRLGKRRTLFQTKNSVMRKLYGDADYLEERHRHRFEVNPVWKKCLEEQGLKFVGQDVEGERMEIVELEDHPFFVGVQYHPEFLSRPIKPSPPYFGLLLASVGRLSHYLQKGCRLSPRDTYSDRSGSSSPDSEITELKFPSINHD
Type: biochemical
Method in brief: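 ADP-Glo luminescence quantified ADP produced by 25 nM purified human CTPS1 (full length, FLAG-His tagged) at 25° C within the linear phase. Final substrates: ATP 120 μM, UTP 160 μM, GTP 60 μM, L-glutamine 100 μM; 1% DMSO; pH 7.4 HEPES buffer with Mg2+, KCl, DTT. Compound pre-incubated with enzyme 10 min, then with ATP/UTP 10 min.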

Row | IC50 [nM] | Compound
1 | > 100 | CCOc1cncc(-c2cnc(C(=O)N[C@H](c3cccc(NS(=O)(=O)C(F)F)c3)[C@H](C)CN3CCCCC3)s2)n1 (single isomer, unassigned) [II-13]

Same assay, conditions: wild-type human CTPS1, 25 nM enzyme; ADP-Glo; read-out: ADP-Glo_WT_hCTPS1—25 nM_IC50 (IC50)

Row | Compound | IC50 [nM]
2 | CCOc1cncc(-c2cnc(C(=O)N[C@@H](c3cc(NS(=O)(=O)C4CC4)ccn3)[C@@H](C)CN3CCCCC3)s2)n1 (stereo in doubt) [I-52, N-((1R,2S)-1-(4-(cyclopropanesulfonamido)pyridin-2-yl)-2-methyl-3-(piperidin-1-yl)propyl)-5-(6-ethoxypyrazin-2-yl)thiazole-2-carboxamide] | 50 to 100
3 | CCOc1cncc(-c2cnc(C(=O)N[C@]3(c4cccc(NS(=O)(=O)C(F)F)c4)C[C@@H](O)C3)s2)n1 [I-203, N-((1r,3r)-1-(3-((difluoromethyl)sulfonamido)phenyl)-3-hydroxycyclobutyl)-5-(6-ethoxypyrazin-2-yl)thiazole-2-carboxamide] | 5 to 25
4 | O=C(N[C@H](c1cccc(NS(=O)(=O)C(F)F)c1)C1CCOCC1)c1ncc(-c2cnn3ccc(Cl)cc23)s1 [I-196, (S)-5-(5-chloropyrazolo[1,5-a]pyridin-3-yl)-N-((3-((difluoromethyl)sulfonamido)phenyl)(tetrahydro-2H-pyran-4-yl)methyl)thiazole-2-carboxamide] | 5 to 25
5 | CCOc1cncc(-c2cnc(C(=O)N[C@@]3(c4cc(NS(=O)(=O)C5CC5)ccn4)CCOC3)s2)n1 (single isomer, unassigned) [I-71] | 5 to 25
6 | CCOc1cncc(-c2cnc(C(=O)N[C@@H](COC)c3nccc(NS(=O)(=O)C4CC4)c3F)s2)n1 (single isomer, unassigned) [I-11] | 5 to 25
7 | CCOc1cncc(-c2cnc(C(=O)N[C@@H](CN3C[C@H]4CC[C@@H]3C4)c3cc(NS(=O)(=O)C4CC4)ccn3)s2)n1 [I-149, N-((S)-2-((1R,4S)-2-azabicyclo[2.2.1]heptan-2-yl)-1-(4-(cyclopropanesulfonamido)pyridin-2-yl)ethyl)-5-(6-ethoxypyrazin-2-yl)thiazole-2-carboxamide] | 50 to 100
8 | CCOc1cncc(-c2cnc(C(=O)N[C@@H](c3cccc(NS(=O)(=O)C(F)F)c3)[C@@H](C)O)s2)n1 [I-287, N-((1S,2R)-1-(3-((difluoromethyl)sulfonamido)phenyl)-2-hydroxypropyl)-5-(6-ethoxypyrazin-2-yl)thiazole-2-carboxamide] | 5 to 25
9 | CCOc1cncc(-c2ccc(C(=O)N[C@H](COC)c3cc(NS(=O)(=O)C4CC4)ccn3)cc2)n1 [I-280, (S)-N-(1-(4-(cyclopropanesulfonamido)pyridin-2-yl)-2-methoxyethyl)-4-(6-ethoxypyrazin-2-yl)benzamide] | 25 to 50

Continued, values first:

Row | IC50 [nM] | Compound
10 | 5 to 25 | CCOc1cncc(-c2cnc(C(=O)N[C@@H](c3cc(NS(=O)(=O)C4CC4)ccn3)[C@H]3COCCO3)s2)n1 [I-75, N-((S)-(4-(cyclopropanesulfonamido)pyridin-2-yl)((S)-1,4-dioxan-2-yl)methyl)-5-(6-ethoxypyrazin-2-yl)thiazole-2-carboxamide]
11 | 5 to 25 | CCOc1cncc(-c2cnc(C(=O)N[C@@H](CN3CC[C@](C)(O)C3)c3cc(NS(=O)(=O)C4CC4)ccn3)s2)n1 [I-130, N-((S)-1-(4-(cyclopropanesulfonamido)pyridin-2-yl)-2-((S)-3-hydroxy-3-methylpyrrolidin-1-yl)ethyl)-5-(6-ethoxypyrazin-2-yl)thiazole-2-carboxamide]
12 | 5 to 25 | CCOc1cncc(-c2cnc(C(=O)N[C@H](COC)c3nccc(NS(=O)(=O)C4CC4)n3)s2)n1 [I-21, (S)-N-(1-(4-(cyclopropanesulfonamido)pyrimidin-2-yl)-2-methoxyethyl)-5-(6-ethoxypyrazin-2-yl)thiazole-2-carboxamide]
13 | 5 to 25 | O=C(N[C@@H](c1cc(NS(=O)(=O)C2CC2)ccn1)[C@H]1COCCO1)c1ncc(-c2cnn3ccc(Cl)cc23)s1 [I-80, 5-(5-chloropyrazolo[1,5-a]pyridin-3-yl)-N-((S)-(4-(cyclopropanesulfonamido)pyridin-2-yl)((S)-1,4-dioxan-2-yl)methyl)thiazole-2-carboxamide]
